Results: ChEMBL document CHEMBL1156243
Activity calls are given as the source filed them.

How the values were obtained:
[1] = Binding affinity to amyloid beta (1 to 42) fibrils by change in fluorescence at 100 uM after 10 mins
[2] = Binding affinity to amyloid beta (1 to 42) oligomers by change in fluorescence at 100 uM after 10 mins
[3] = Inhibition of amyloid beta (1 to 42) aggregation […] after 48 hrs by fluorescence imaging

Nc1ccc2nc3ccc(N)cc3[s+]c2c1
Activity [1]: inactive
Activity [2]: inactive

CN(C)c1ccc2nc3ccc(=[N+](C)C)cc-3sc2c1
Activity [1]: inactive
Activity [2]: inactive

O=c1c(O)c(-c2ccc(O)c(O)c2)oc2cc(O)cc(O)c12
Activity [1]: inactive
Activity [2]: inactive

COc1ccc(/C=C/c2cc(OC)cc(OC)c2)cc1
Activity [1]: inactive
Activity [2]: inactive

COc1cc(/C=C/C(=O)O)ccc1O
Activity [1]: Active
Activity [2]: Active

C=C1c2c(Cl)ccc(O)c2C(=O)C2=C(O)[C@]3(O)C(=O)C(C(N)=O)=C(O)[C@@H](N(C)C)[C@@H]3[C@@H](O)[C@H]12.O=C(O)c1cc(S(=O)(=O)O)ccc1O
Activity [1]: Active
Activity [2]: Active

O=Cc1cccc(O)c1
Activity [1]: inactive
Activity [2]: inactive

O=c1cc2oc3cc(O)c(-c4ccc(O)cc4O)cc3nc-2cc1-c1ccc(O)cc1O
Activity [1]: inactive
Activity [2]: inactive

O=c1oc2c(O)c(O)cc3c(=O)oc4c(O)c(O)cc1c4c23
Activity [1]: inactive
Activity [2]: inactive

CC(=O)c1ccccc1
Activity [1]: inactive
Activity [2]: inactive

NCCc1c[nH]c2ccccc12
Activity [1]: Active
Activity [2]: Active

COc1ccc(/C=C/C(=O)c2cccc(N)c2)cc1OC
Activity [1]: inactive
Activity [2]: inactive

COc1cc(/C=C/C(=O)c2cccc(N)c2)ccc1O
Activity [1]: inactive
Activity [2]: inactive

COc1cc(/C=C/C(=O)c2ccccc2)ccc1O
Activity [1]: inactive
Activity [2]: inactive

OCCN1CCN(CCCN2c3ccccc3Sc3ccc(Cl)cc32)CC1
Activity [1]: inactive
Activity [2]: inactive

Cc1ccc2ccc3ccc(C)nc3c2n1
Activity [1]: Active
Activity [2]: Active

COc1ccc(/C=C/C(=O)c2ccccc2)cc1OC
Activity [1]: inactive
Activity [2]: inactive

COc1ccc2[nH]cc(CCNC(C)=O)c2c1
Activity [1]: Active
Activity [2]: Active
inhibition [3]: inactive

CCN(CC)c1ccc2c(-c3ccccc3C(C)=O)c3ccc(=[N+](CC)CC)cc-3oc2c1
Activity [1]: Active
Activity [2]: Active

O=C(c1ccccc1)c1ccc(O)c(O)c1O
Activity [1]: inactive
Activity [2]: inactive

O=C1c2ccccc2Cc2ccccc21
Activity [1]: inactive
Activity [2]: inactive

O=c1c(O)c(-c2cc(O)c(O)c(O)c2)oc2cc(O)cc(O)c12
Activity [1]: inactive
Activity [2]: inactive

Oc1cc(O)c2c(c1)O[C@H](c1ccc(O)c(O)c1)[C@@H](O)C2
Activity [1]: inactive
Activity [2]: inactive

COc1ccc(C=O)cc1
Activity [1]: inactive
Activity [2]: inactive

COc1ccc(C=O)cc1OC
Activity [1]: inactive
Activity [2]: inactive

O=C(O)c1ccccc1O
Activity [1]: Active
Activity [2]: Active

O=c1c(-c2ccc(O)cc2)coc2cc(O)cc(O)c12
Activity [1]: inactive
Activity [2]: inactive

O=C(O)c1cc(/N=N/c2ccc(-c3ccc(/N=N/c4ccc(O)c(C(=O)O)c4)cc3)cc2)ccc1O
Activity [1]: inactive
Activity [2]: inactive

O=C(O)/C=C/c1cccc(O)c1
Activity [1]: inactive
Activity [2]: inactive

Oc1ccc(/C=C/c2cc(O)cc(O)c2)cc1
Activity [1]: Active
Activity [2]: Active

O=C(O)C(=O)Cc1c[nH]c2ccccc12
Activity [1]: Active
Activity [2]: Active

NCCc1ccc(O)c(O)c1
Activity [1]: inactive
Activity [2]: inactive

Nc1c(/N=N/c2ccc(-c3ccc(/N=N/c4cc(S(=O)(=O)O)c5ccccc5c4N)cc3)cc2)cc(S(=O)(=O)O)c2ccccc12
Activity [1]: Active
Activity [2]: Active

CN(C)c1ccc(N=Nc2ccccc2C(=O)O)cc1
Activity [1]: inactive
Activity [2]: inactive

CN(C)c1ccc(N=Nc2ccccc2)cc1
Activity [1]: inactive
Activity [2]: inactive

COc1cc(/C=C/C(=O)NCCNC(=O)/C=C/c2ccc(O)c(OC)c2)ccc1O
Activity [1]: inactive
Activity [2]: inactive

O=S1(=O)OC(c2ccc(O)cc2)(c2ccc(O)cc2)c2ccccc21
Activity [1]: inactive
Activity [2]: inactive

CN(C)c1ccc(O)c2c1C[C@H]1C[C@H]3[C@H](N(C)C)C(O)=C(C(N)=O)C(=O)[C@@]3(O)C(O)=C1C2=O
Activity [1]: inactive
Activity [2]: inactive

Oc1ccc(Cc2ccc(O)cc2)cc1
Activity [1]: inactive
Activity [2]: inactive

O=C(/C=C/c1ccccc1)c1ccccc1
Activity [1]: inactive
Activity [2]: inactive

COc1ccc(/C=C/C(=O)CC(=O)/C=C/c2ccc(OC)c(OC)c2)cc1OC
Activity [1]: inactive
Activity [2]: inactive

O=C1C[C@@H](c2ccc(O)cc2)Oc2cc(O)cc(O)c21
Activity [1]: inactive
Activity [2]: inactive

Nc1ccc(/N=N/c2ccc(-c3ccc(/N=N/c4c(S(=O)(=O)O)cc5cc(S(=O)(=O)O)c(/N=N/c6ccccc6)c(O)c5c4N)cc3)cc2)c(N)c1
Activity [1]: inactive
Activity [2]: inactive

CN(C)[C@@H]1C(O)=C(C(=O)NCN2CCCC2)C(=O)[C@@]2(O)C(O)=C3C(=O)c4c(O)cccc4[C@@](C)(O)[C@H]3C[C@@H]12
Activity [1]: inactive
Activity [2]: inactive

COc1cc(/C=C/C(=O)NCc2cccc(CNC(=O)/C=C/c3ccc(O)c(OC)c3)c2)ccc1O
Activity [1]: inactive
Activity [2]: inactive

COc1cc(-c2ccc(/N=N/c3ccc4c(S(=O)(=O)O)cc(S(=O)(=O)O)c(N)c4c3O)c(OC)c2)ccc1/N=N/c1ccc2c(S(=O)(=O)O)cc(S(=O)(=O)O)c(N)c2c1O
Activity [1]: inactive
Activity [2]: inactive

Nc1c2ccccc2nc2ccccc12
Activity [1]: Active
Activity [2]: Active

COc1cc(/C=C/C(=O)NCCCCCCCCNC(=O)/C=C/c2ccc(O)c(OC)c2)ccc1O
Activity [1]: inactive
Activity [2]: inactive

O=C(/C=C/c1ccc(O)c(O)c1)O[C@H](Cc1ccc(O)c(O)c1)C(=O)O
Activity [1]: inactive
Activity [2]: inactive

Oc1cc(O)c2c(c1)O[C@H](c1ccc(O)c(O)c1)[C@H](O)C2
Activity [1]: inactive
Activity [2]: inactive

CN(C)c1ccc2nc3ccc(N)cc3[s+]c2c1
Activity [1]: inactive
Activity [2]: inactive

CN(C)c1ccc(N=Nc2ccc(S(=O)(=O)O)cc2)cc1
Activity [1]: inactive
Activity [2]: inactive

COc1ccc(C(=O)c2cc(OC)cc(OC)c2)cc1
Activity [1]: inactive
Activity [2]: inactive

COc1cccc(C=O)c1O
Activity [1]: inactive
Activity [2]: inactive

O=S(=O)(O)c1cc(S(=O)(=O)O)c2c(/N=N/c3ccccc3)c(O)ccc2c1
Activity [1]: inactive
Activity [2]: inactive

O=c1c(O)c(-c2ccc(O)cc2)oc2cc(O)cc(O)c12
Activity [1]: inactive
Activity [2]: inactive

O=C(O[C@@H]1Cc2c(O)cc(O)cc2O[C@@H]1c1cc(O)c(O)c(O)c1)c1cc(O)c(O)c(O)c1
Activity [1]: inactive
Activity [2]: inactive

CN(C)[C@@H]1C(O)=C(C(N)=O)C(=O)[C@@]2(O)C(O)=C3C(=O)c4c(O)cccc4[C@@](C)(O)[C@H]3C[C@@H]12
Activity [1]: inactive
Activity [2]: inactive

O=C1C=Cc2ccccc2C1=O
Activity [1]: Active
Activity [2]: Active

COc1ccc(/C=C/c2ccc(/C=C/c3ccc(OC)c(OCc4ccccc4)c3)c(Br)c2)cc1OCc1ccccc1
Activity [1]: Active
Activity [2]: Active

O=C(c1ccccc1)c1ccccc1
Activity [1]: inactive
Activity [2]: inactive

CC(C)OC(=O)C(C)(C)Oc1ccc(C(=O)c2ccc(Cl)cc2)cc1
Activity [1]: inactive
Activity [2]: inactive

O=C(c1ccc(O)cc1)c1ccc(O)cc1
Activity [1]: inactive
Activity [2]: inactive

O=C(/C=C/c1cccc(O)c1)c1ccccc1
Activity [1]: inactive
Activity [2]: inactive

COc1cc(/C=C/C(=O)CC(=O)/C=C/c2ccc(O)c(OC)c2)ccc1O
Activity [1]: inactive
Activity [2]: inactive

COc1ccc(/C=C/C(=O)c2ccccc2)cc1
Activity [1]: inactive
Activity [2]: inactive

COc1ccc(/C=C/c2cccc(/C=C/c3ccc(OC)c(OC)c3)c2)cc1OC
Activity [1]: Active
Activity [2]: Active

COc1cc(/C=C/C(=O)NCCCCNC(=O)/C=C/c2ccc(O)c(OC)c2)ccc1O
Activity [1]: inactive
Activity [2]: inactive

CNc1ccc2nc3ccc(N)cc3[s+]c2c1
Activity [1]: inactive
Activity [2]: inactive

Cc1ccc2[nH]c(C(=O)O)cc2c1
Activity [1]: Active
Activity [2]: Active
inhibition [3]: inactive

O=C1C=CC(=O)c2c(O)cccc21
Activity [1]: inactive
Activity [2]: inactive

CC(Cc1ccc(O)c(O)c1)C(C)Cc1ccc(O)c(O)c1 (stereo unspecified)
Activity [1]: inactive
Activity [2]: inactive

O=c1cc(-c2ccc(O)cc2)oc2cc(O)cc(O)c12
Activity [1]: inactive
Activity [2]: inactive

O=C(c1ccccc1O)c1ccccc1O
Activity [1]: inactive
Activity [2]: inactive

O=Cc1c[nH]c2ccccc12
Activity [1]: inactive
Activity [2]: inactive

N[C@@H](Cc1c[nH]c2ccccc12)C(=O)O
Activity [1]: Active
Activity [2]: Active
inhibition [3]: inactive

O=C1C(Cl)=C(Cl)C(=O)C(Cl)=C1Cl
Activity [1]: inactive
Activity [2]: inactive

COc1ccc2c(c1)c(CC(=O)O)c(C)n2C(=O)c1ccc(Cl)cc1
Activity [1]: inactive
Activity [2]: inactive

O=C1c2c(O)cc(O)cc2O[C@H](c2ccc(O)c(O)c2)[C@H]1O
Activity [1]: inactive
Activity [2]: inactive
